Measured values: ChEMBL document CHEMBL1201862, “PubChem BioAssay data set” (2004)
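Compound exposure: 48 hours, 5 concentrations, 96-well plates. GI50 = concentration required for 50% inhibition of growth.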 Calls of active or inactive are those of the source. No stated cut-off is given here; in the data, active = GI50 up to about 1.1 µM and inactive = higher.

Tests used:
Experiment in all cases: NCI anticancer screen, dose series, 48 h
SNB-75 = tested on: SNB-75
UACC-62 = tested on: UACC-62
HCC 2998 = tested on: HCC 2998
NCI-H23 = tested on: NCI-H23
SF-268 = tested on: SF-268
OVCAR-4 = tested on: OVCAR-4
786-0 = tested on: 786-0
Malme-3M = tested on: Malme-3M
OVCAR-3 = tested on: OVCAR-3
HT-29 = tested on: HT-29
SF-539 = tested on: SF-539
SNB-19 = tested on: SNB-19
TK-10 = tested on: TK-10
MOLT-4 = tested on: MOLT-4
NCI-H522 = tested on: NCI-H522
KM12 = tested on: KM12
DU-145 = tested on: DU-145
Hs-578T = tested on: Hs-578T
RXF 393 = tested on: RXF 393
MCF7 = tested on: MCF7

Measured: GI50

CC12CCC(C(=O)n3c1nc1ccccc13)C(C)(C)O2 (stereo not given)
inactive: SNB-75 15.6 µM | UACC-62 > 100 µM | HCC 2998 > 100 µM | NCI-H23 > 100 µM | SF-268 > 100 µM | OVCAR-4 > 100 µM | 786-0 > 100 µM | Malme-3M > 100 µM | OVCAR-3 > 100 µM | HT-29 > 100 µM | SF-539 > 100 µM | SNB-19 > 100 µM | TK-10 > 100 µM | MOLT-4 > 100 µM | NCI-H522 47.6 µM | KM12 > 100 µM | DU-145 > 100 µM | Hs-578T 16.3 µM | RXF 393 > 100 µM | MCF7 > 100 µM

CC1CNC(c2ccc(CN3CCC(C4CCN(Cc5ccc(C6=NC(C)CN6)cc5)CC4)CC3)cc2)=N1 (stereo not given)
inactive: SNB-75 16.6 µM | UACC-62 19.9 µM | HCC 2998 14.6 µM | NCI-H23 28 µM | SF-268 22.4 µM | OVCAR-4 16.8 µM | 786-0 19.1 µM | Malme-3M 23.9 µM | OVCAR-3 17.5 µM | HT-29 18.5 µM | SF-539 20.3 µM | SNB-19 26.1 µM | TK-10 22.4 µM | MOLT-4 19.7 µM | NCI-H522 15 µM | KM12 15.7 µM | DU-145 16.2 µM | Hs-578T 18.6 µM | RXF 393 16.9 µM | MCF7 17 µM

Cc1nc(SCC(=O)Nc2ccccc2)c2sc(=S)n(-c3ccccc3)c2n1
inactive: SNB-75 3.19 µM | UACC-62 > 10 µM | HCC 2998 > 10 µM | NCI-H23 > 10 µM | SF-268 > 10 µM | OVCAR-4 5.62 µM | 786-0 8.79 µM | Malme-3M > 10 µM | OVCAR-3 > 10 µM | HT-29 > 10 µM | SF-539 4.44 µM | SNB-19 8.41 µM | TK-10 > 10 µM | MOLT-4 > 10 µM | NCI-H522 > 10 µM | KM12 > 10 µM | DU-145 > 10 µM | Hs-578T 4.25 µM | RXF 393 > 10 µM | MCF7 > 10 µM

O=[N+]([O-])c1ccc2c(c1)nc1n2C(c2c(F)cccc2F)SC1 (stereo not given)
inactive: SNB-75 84.7 µM | UACC-62 > 100 µM | HCC 2998 > 100 µM | NCI-H23 > 100 µM | SF-268 > 100 µM | OVCAR-4 > 100 µM | 786-0 > 91.6 µM | Malme-3M > 100 µM | OVCAR-3 > 100 µM | HT-29 > 100 µM | SF-539 > 100 µM | SNB-19 > 100 µM | TK-10 > 100 µM | MOLT-4 > 100 µM | NCI-H522 > 100 µM | KM12 > 100 µM | DU-145 > 100 µM | Hs-578T > 100 µM | RXF 393 > 100 µM | MCF7 > 100 µM

CN(c1ccccc1Cl)S(=O)(=O)c1ccc([N+](=O)[O-])cc1
inactive: SNB-75 > 100 µM | UACC-62 > 100 µM | HCC 2998 > 100 µM | NCI-H23 > 100 µM | SF-268 > 100 µM | OVCAR-4 > 100 µM | 786-0 > 100 µM | Malme-3M > 100 µM | OVCAR-3 > 100 µM | HT-29 > 100 µM | SF-539 > 100 µM | SNB-19 > 100 µM | TK-10 > 100 µM | MOLT-4 > 100 µM | NCI-H522 > 100 µM | KM12 > 100 µM | DU-145 > 100 µM | Hs-578T > 100 µM | RXF 393 > 100 µM | MCF7 > 100 µM

CC(C)(CN1CCCCC1)C(=O)/C=C/c1ccc(/C=C/C(=O)C(C)(C)CN2CCCCC2)cc1
active: SNB-75 0.673 µM | UACC-62 1.02 µM | HCC 2998 0.35 µM | NCI-H23 0.711 µM | SF-268 0.413 µM | OVCAR-4 0.368 µM | 786-0 0.446 µM | Malme-3M 0.871 µM | OVCAR-3 0.369 µM | HT-29 0.198 µM | SF-539 0.538 µM | TK-10 1.05 µM | MOLT-4 0.11 µM | NCI-H522 0.0454 µM | KM12 0.434 µM | Hs-578T 0.42 µM | RXF 393 0.28 µM | MCF7 0.247 µM
inactive: SNB-19 1.35 µM | DU-145 1.94 µM

COC(=O)[C@]1(C)[C@H]2C[C@H]3O[C@H]4[C@H](O)[C@@H](O)OC(CC(O)C(C5=CC(=O)OC5)C(C5=CC(=O)OC5)C(O)CC56CCCCC7[C@@H](C)[C@H](C[C@H]8[C@](C)(C(=O)OC)[C@H](O)CC[C@]78C)O[C@H]([C@@H](O)[C@H](O)O5)[C@H]6O)(CCCCC([C@@H]3C)[C@]2(C)CC[C@@H]1O)[C@H]4O (stereo not given in full)
active: SNB-75 0.129 µM | UACC-62 0.33 µM | HCC 2998 0.655 µM | NCI-H23 0.0439 µM | SF-268 < 0.0272 µM | OVCAR-4 0.147 µM | 786-0 0.0318 µM | Malme-3M 0.0989 µM | OVCAR-3 0.103 µM | HT-29 0.157 µM | SF-539 0.0394 µM | SNB-19 0.372 µM | TK-10 < 0.0391 µM | MOLT-4 < 0.0184 µM | NCI-H522 < 0.01 µM | KM12 0.353 µM | DU-145 0.0628 µM | Hs-578T < 0.0251 µM | RXF 393 0.0356 µM | MCF7 0.111 µM

O=C(O)C1=CN(c2ccncc2)C(c2ccco2)=CC1c1ccccc1[N+](=O)[O-] (stereo not given)
inactive: SNB-75 7.36 µM | UACC-62 15.6 µM | HCC 2998 1.82 µM | NCI-H23 14.5 µM | SF-268 5.71 µM | OVCAR-4 13.9 µM | 786-0 2.16 µM | Malme-3M 9.53 µM | OVCAR-3 7 µM | HT-29 2.13 µM | SF-539 3.11 µM | SNB-19 12.5 µM | TK-10 6.17 µM | MOLT-4 3.03 µM | NCI-H522 3.22 µM | KM12 1.75 µM | DU-145 13.5 µM | Hs-578T 14.4 µM | RXF 393 6.31 µM | MCF7 2.99 µM

COc1cc(/C=C/C(=O)O)ccc1OS(=O)(=O)O
inactive: SNB-75 > 100 µM | UACC-62 > 100 µM | HCC 2998 > 100 µM | NCI-H23 > 100 µM | SF-268 > 100 µM | OVCAR-4 > 100 µM | 786-0 > 100 µM | Malme-3M > 100 µM | OVCAR-3 > 100 µM | HT-29 > 100 µM | SF-539 > 100 µM | SNB-19 > 100 µM | TK-10 > 100 µM | MOLT-4 > 100 µM | NCI-H522 > 100 µM | KM12 > 100 µM | DU-145 > 100 µM | Hs-578T > 100 µM | RXF 393 > 100 µM | MCF7 > 100 µM
